# Tested on: SREBP pathway
# Experiment: SREBP luciferase reporter gene system (SRE-luciferase assay)
# Format: cell-based, human
# Conditions: Homo sapiens, Huh-7, 16 h, Huh-7/SRE-luc cells, sterol-deficient medium, 0.01-10 µM
# Procedure, shortened: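 Readout was SRE-driven luciferase normalised to GFP fluorescence in lysates of stably transfected Huh-7/SRE-luc hepatoma cells. Compounds (0.01, 0.03, 0.1, 0.3, 1.0, 3.0, 10 µM; DMSO control) were applied for 16 h in sterol-depleted medium with 2 µM lovastatin and 10 µM mevalonate; IC50 from variable-slope fit.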
row,Compound,IC50 [µM]
1,"C[C@H](CCCC(O)c1nccs1)[C@H]1CC[C@H]2C3=C(F)C[C@H]4[C@@H](O)[C@@H](O)CC[C@]4(C)[C@H]3CC[C@]12C (stereo partly drawn) [Compound 90, (1R,3aR,5aR,6R,7S,9aR,9bR,11aR)-4-fluoro-1-[(2R)-6-hydroxy-6-(1,3-thiazol-2-yl)hexan-2-yl]-9a,11a-dimethyl-2,3,3a,5,5a,6,7,8,9,9a,9b,10,11,11a-tetradecahydro-1H-cyclopenta[1,2-a]phenanthrene-6,7-diol]",0.379
2,"C[C@H](CCC[C@H](O)c1ccccn1)[C@H]1CC[C@H]2[C@H]3[C@H](CC[C@]12C)[C@@]1(C)CC[C@H](O)[C@H](O)[C@@H]1CC3(F)F [Compound 91, (1R,3aS,3bS,5aR,6R,7S,9aR,9bS,11aR)-4,4-difluoro-1-[(2R,6S)-6-hydroxy-6-(pyridin-2-yl)hexan-2-yl]-9a,11a-dimethylhexadecahydro-1H-cyclopenta[1,2-a]phenanthrene-6,7-diol]",0.378
3,"C[C@H](CCCC1(O)CC1)[C@H]1CC[C@H]2[C@H]3[C@H](CC[C@]12C)[C@@]1(C)CC[C@H](O)[C@H](O)[C@@H]1CC3(F)F [Compound 93, (1R,3aS,3bS,5aR,6R,7S,9aR,9bS,11aR)-4,4-difluoro-1-[(2R)-5-(hydroxycyclopropyl)pentan-2-yl]-9a,11a-dimethylhexadecahydro-1H-cyclopenta[1,2-a]phenanthrene-6,7-diol]",0.613
4,"C[C@H](CCC(=O)N(C)c1ccccc1F)[C@H]1CC[C@H]2C3=C(F)C[C@H]4[C@@H](O)[C@@H](O)CC[C@]4(C)[C@H]3CC[C@]12C [Compound 96, (4R)-4-[(1R,3aR,5aR,6R,7S,9aR,9bR,11aR)-4-fluoro-6,7-dihydroxy-9a,11a-dimethyl-2,3,3a,5,5a,6,7,8,9,9a,9b,10,11,11a-tetradecahydro-1H-cyclopenta[1,2-a]phenanthren-1-yl]-N-(2-fluorophenyl)-N-methylpentanamide]",0.34
5,"C[C@H](CCCC(O)c1ncco1)[C@H]1CC[C@H]2[C@H]3[C@H](CC[C@]12C)[C@@]1(C)CC[C@H](O)[C@H](O)[C@@H]1CC3(F)F (stereo partly drawn) [Compound 99, (1R,3aS,3bS,5aR,6R,7S,9aR,9bS,11aR)-4,4-difluoro-1-[(2R)-6-hydroxy-6-(1,3-oxazol-2-yl)hexan-2-yl]-9a,11a-dimethylhexadecahydro-1H-cyclopenta[1,2-a]phenanthrene-6,7-diol]",0.243
6,"COc1cc(Cl)ccc1[C@H](O)CCC[C@@H](C)[C@H]1CC[C@H]2C3=C(F)C[C@H]4[C@@H](O)[C@@H](O)CC[C@]4(C)[C@H]3CC[C@]12C [Compound 110, (1R,3aR,5aR,6R,7S,9aR,9bR,11aR)-1-[(2R,6R)-6-(4-chloro-2-methoxyphenyl)-6-hydroxyhexan-2-yl]-4-fluoro-9a,11a-dimethyl-2,3,3a,5,5a,6,7,8,9,9a,9b,10,11,11a-tetradecahydro-1H-cyclopenta[1,2-a]phenanthrene-6,7-diol]",1.13
7,"COc1cc(Cl)ccc1[C@@H](O)CCC[C@@H](C)[C@H]1CC[C@H]2C3=C(F)C[C@H]4[C@@H](O)[C@@H](O)CC[C@]4(C)[C@H]3CC[C@]12C [Compound 111, (1R,3aR,5aR,6R,7S,9aR,9bR,11aR)-1-[(2R,6S)-6-(4-chloro-2-methoxyphenyl)-6-hydroxyhexan-2-yl]-4-fluoro-9a,11a-dimethyl-2,3,3a,5,5a,6,7,8,9,9a,9b,10,11,11a-tetradecahydro-1H-cyclopenta[1,2-a]phenanthrene-6,7-diol]",1.48
8,"COc1cc(Cl)ccc1[C@@H](O)CCC[C@@H](C)[C@H]1CC[C@H]2[C@H]3[C@H](CC[C@]12C)[C@@]1(C)CC[C@H](O)[C@H](O)[C@@H]1CC3(F)F [Compound 112, (1R,3aS,3bS,5aR,6R,7S,9aR,9bS,11aR)-1-[(2R,6S)-6-(4-chloro-2-methoxyphenyl)-6-hydroxyhexan-2-yl]-4,4-difluoro-9a,11a-dimethylhexadecahydro-1H-cyclopenta[1,2-a]phenanthrene-6,7-diol]",0.318
9,"COc1cccc(OC)c1C(O)CCC[C@@H](C)[C@H]1CC[C@H]2C3=C(F)C[C@H]4[C@@H](O)[C@@H](O)CC[C@]4(C)[C@H]3CC[C@]12C (stereo partly drawn) [Compound 115, (1R,3aR,5aR,6R,7S,9aR,9bR,11aR)-1-[(2R)-6-(2,6-dimethoxyphenyl)-6-hydroxyhexan-2-yl]-4-fluoro-9a,11a-dimethyl-2,3,3a,5,5a,6,7,8,9,9a,9b,10,11,11a-tetradecahydro-1H-cyclopenta[1,2-a]phenanthrene-6,7-diol]",0.613
10,"COc1cccc(OC)c1C(O)CCC[C@@H](C)[C@H]1CC[C@H]2[C@H]3[C@H](CC[C@]12C)[C@@]1(C)CC[C@H](O)[C@H](O)[C@@H]1CC3(F)F (stereo partly drawn) [Compound 116, (1R,3aS,3bS,5aR,6R,7S,9aR,9bS,11aR)-1-[(2R)-6-(2,6-dimethoxyphenyl)-6-hydroxyhexan-2-yl]-4,4-difluoro-9a,11a-dimethylhexadecahydro-1H-cyclopenta[1,2-a]phenanthrene-6,7-diol]",0.177
11,"COc1cccc(F)c1C(O)CCC[C@@H](C)[C@H]1CC[C@H]2[C@H]3[C@H](CC[C@]12C)[C@@]1(C)CC[C@H](O)C(=O)[C@@H]1CC3(F)F (stereo partly drawn) [Compound 124, (1R,3aS,3bS,5aR,7S,9aR,9bS,11aR)-4,4-difluoro-1-[(2R)-6-(2-fluoro-6-methoxyphenyl)-6-hydroxyhexan-2-yl]-7-hydroxy-9a,11a-dimethylhexadecahydro-1H-cyclopenta[1,2-a]phenanthren-6-one]",0.064
12,"C[C@H](CCC1CC(=O)C1)[C@H]1CC[C@H]2[C@@H]3CC[C@H]4C[C@@H](O)CC[C@]4(C)[C@H]3CC[C@]12C [Compound 129, 3-[(3R)-3-[(1R,3aS,3bR,5aS,7S,9aS,9bS,11aR)-7-hydroxy-9a,11a-dimethylhexadecahydro-1H-cyclopenta[1,2-a]phenanthren-1-yl]butyl]cyclobutan-1-one]",0.32
13,"COc1cc(F)ccc1[C@H](O)CCC[C@@H](C)[C@H]1CC[C@H]2C3=C(F)C[C@H]4[C@@H](O)[C@@H](O)CC[C@]4(C)[C@H]3CC[C@]12C [Compound 132, (1R,3aR,5aR,6R,7S,9aR,9bR,11aR)-4-fluoro-1-[(2R,6R)-6-(4-fluoro-2-methoxyphenyl)-6-hydroxyhexan-2-yl]-9a,11a-dimethyl-2,3,3a,5,5a,6,7,8,9,9a,9b,10,11,11a-tetradecahydro-1H-cyclopenta[1,2-a]phenanthrene-6,7-diol]",0.096
14,"COc1cc(F)ccc1[C@@H](O)CCC[C@@H](C)[C@H]1CC[C@H]2C3=C(F)C[C@H]4[C@@H](O)[C@@H](O)CC[C@]4(C)[C@H]3CC[C@]12C [Compound 133, (1R,3aR,5aR,6R,7S,9aR,9bR,11aR)-4-fluoro-1-[(2R,6S)-6-(4-fluoro-2-methoxyphenyl)-6-hydroxyhexan-2-yl]-9a,11a-dimethyl-2,3,3a,5,5a,6,7,8,9,9a,9b,10,11,11a-tetradecahydro-1H-cyclopenta[1,2-a]phenanthrene-6,7-diol]",0.095
15,"C[C@H](CCC1CC(=NO)C1)[C@H]1CC[C@H]2[C@@H]3CC[C@H]4C[C@@H](O)CC[C@]4(C)[C@H]3CC[C@]12C (stereo partly drawn) [Compound 135, {3-[(3R)-3-[(1R,3aS,3bR,5aS,7S,9aS,9bS,11aR)-7-hydroxy-9a,11a-dimethylhexadecahydro-1H-cyclopenta[1,2-a]phenanthren-1-yl]butyl]cyclobutylidene}hydroxylamine]",4.03

# From patent publication EP4752152A1, “STEROID COMPOUND, AND PREPARATION METHOD THEREFOR AND USE THEREOF” (Cholesgen (Shanghai) Co.Ltd., priority 2023, dated 2025)
